{"source": "patent US5824691A", "about": "“Guanidine derivatives as inhibitors of Na^+ /H^+ exchange in cells” (Fujisawa Pharmaceutical Co., Ltd., priority 1993, dated 1998)", "target": "T1, Na^+ /H^+ exchanger (Rattus norvegicus, UniProt P26431)", "T1 construct": "endogenous in cells; host or cells: thymocytes freshly isolated from the thymus of a male SD (Sprague-Dawley) rat", "T1 sequence (P26431 whole entry)": "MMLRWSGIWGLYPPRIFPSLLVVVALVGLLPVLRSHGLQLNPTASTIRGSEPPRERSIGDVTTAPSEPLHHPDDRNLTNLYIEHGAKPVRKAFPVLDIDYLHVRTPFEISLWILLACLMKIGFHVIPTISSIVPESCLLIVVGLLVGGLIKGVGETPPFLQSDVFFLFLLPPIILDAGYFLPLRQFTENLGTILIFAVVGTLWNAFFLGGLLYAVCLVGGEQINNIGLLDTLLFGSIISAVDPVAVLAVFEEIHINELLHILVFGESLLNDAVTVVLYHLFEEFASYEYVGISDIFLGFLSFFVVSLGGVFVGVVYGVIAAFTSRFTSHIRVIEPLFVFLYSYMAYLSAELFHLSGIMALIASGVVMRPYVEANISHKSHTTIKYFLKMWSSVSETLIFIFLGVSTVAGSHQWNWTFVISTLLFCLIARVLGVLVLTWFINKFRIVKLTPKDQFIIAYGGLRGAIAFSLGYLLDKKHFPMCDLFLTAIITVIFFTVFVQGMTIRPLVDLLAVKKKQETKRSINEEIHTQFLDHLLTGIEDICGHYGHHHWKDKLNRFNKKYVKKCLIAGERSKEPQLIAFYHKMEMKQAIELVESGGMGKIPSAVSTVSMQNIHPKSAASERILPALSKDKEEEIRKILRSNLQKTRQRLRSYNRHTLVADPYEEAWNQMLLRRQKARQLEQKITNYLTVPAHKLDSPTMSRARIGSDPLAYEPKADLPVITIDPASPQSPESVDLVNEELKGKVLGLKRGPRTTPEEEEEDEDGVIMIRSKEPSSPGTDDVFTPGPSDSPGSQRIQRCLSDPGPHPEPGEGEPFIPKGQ", "test": "Inhibitory activity on Na^+ /H^+ exchange in cells (thymocyte swelling in sodium propionate medium)", "assay_type": "cell-based", "conditions": "apparent Ki, Lineweaver-Burk plot; rate of swelling of thymocytes (male SD strain); sodium-propionate medium pH 6.8; 0.1% DMSO; 3-5 concentrations", "procedure": "[2] Inhibitory activity on Na^+ /H^+ exchange in cells\nProcedure was carried out according to a similar manner to the method described in Enzymology 173, 777 (1989).\nOne male SD strain weighing 250-300 g was sacrificed with the blow on the head. Then, the thymus was removed into ice-cold NaCl medium (140 mM sodium chloride, 1 mM potassium chloride, 1 mM calcium chloride, 1 mM magnesium chloride, 10 mM glucose and 20 mM N-2-hydroxyethylpiperazine-N'-2-ethanesulfonic acid (HEPES) - - - pH 7.3), cut in small fragments, and transferred to glass homogenizer. The cells were dissociated by gentle strokes, and the resulting suspension was filtrated through six layers of surgical gauze and the filtrate was centrifuged at 4° C. at 1000 g for 5 minutes. The pellet was resuspended in RPMI 1640 medium (pH 7.3) at room temperature to adjust final cell concentration (1×10^7 cells/ml).\nThis method detects the swelling that accompanies activation of Na^+ /H^+ exchanger in cells incubated with sodium propionate. Propionic acid rapidly penetrates through the membrane. […]\nCell sizing and counting were performed electrically with the Coulter Counter-Channelyzer (AT-II). […] Rate of Swelling (volume/min.) was measured by using 3-5 concentrations of test compound. Then, apparent Ki value of test compound was calculated by using Line weaver-Burk plot.", "data": [{"smiles": "CS(=O)(=O)c1cc(C(=O)N=C(N)N)cc(-n2cccc2)c1", "note": "[Test compound (a), 2-[3-Methylsulfonyl-5-(pyrrol-1-yl)benzoyl]guanidine]", "values": [{"measurement": "Ki", "result": "< 100", "unit": "nM"}]}]}
